From article PMC6085462 (Frontiers in Microbiology, 2018)
Entries after “also recorded” stand apart in the source; their conditions may differ. Where no end group is shown, it is not given here.

Tests used:
[1] = tested on: pepsin; lipase; experiment: TIM-1 gastric compartment: simulated gastric secretions containing pepsin (0.19 mg/mL) or lipase (0.25 mg/mL) in an electrolyte solution, pH 4.5 decreased gradually to 1.7; settings: up to 60 min
[2] = tested on: α-chymotrypsin from bovine pancreas (EC 3.4.21.1); experiment: α-chymotrypsin alone at a final concentration of 8 mg/mL in the intestinal electrolyte solution; settings: 37°C, up to 120 min
[3] = tested on: elastase type IIA from porcine pancreas; experiment: elastase alone in the intestinal electrolyte solution; settings: 37°C, up to 120 min
[4] = tested on: elastase type IIA from porcine pancreas (EC 3.4.21.36); experiment: elastase alone at a final concentration of 8 mg/mL in the intestinal electrolyte solution; settings: 37°C, up to 120 min
[5] = tested on: Pancreatin from porcine pancreas; experiment: pancreatin alone at a final concentration of 8 mg/mL in the intestinal electrolyte solution; settings: 37°C, up to 120 min
[6] = tested on: pancreatin; trypsin; experiment: static duodenal model: 8% pancreatin, 4% porcine bile, 2 mg/mL trypsin in intestinal electrolyte solution, pH 6.3; settings: bovine trypsin, 37°C, up to 120 min
[7] = tested on: pancreatin; experiment: pancreatin alone in the intestinal electrolyte solution; settings: porcine, 37°C, up to 120 min
[8] = tested on: pancreatin; trypsin; experiment: Duodenal solution: 8% pancreatin, 4% porcine bile solutions and 2 mg/mL trypsin solution in intestinal electrolyte solution adjusted to pH 6.3; settings: 37°C, up to 120 min
[9] = ref Kheadr et al., 2010; cited from earlier work
Excerpt: A bacteriocin is most often defined as a peptide of molecular mass mostly <10,000 Da that is inhibitory to species closely related to the producer species. Bacteriocins differ from antibiotics in being synthesized by translation of an mRNA transcript, having generally a narrow spectrum of activity and being effective at concentrations as low as nanomolar ([Nes, 2011]). Some bacteriocins may undergo post-translational modifications and as such belong to the family of ribosomally-synthesized and post-translationally-modified peptides (RiPPs) ([Arnison et al., 2013]) Their potential as antimicrob ...

GGAGHVPEYFVGIGTPISFYG
cleaved bond [1]: G14-T15, 60 min | cleaved bond [2]: Y9-F10, major, 0 min; also recorded: F10-V11, 0 min | cleaved bond [3]: F10-V11, 0 min; also recorded: I13-G14, 0 min; also recorded: Y9-F10, 0 min | cleaved bond [4]: F10-V11, 0 min; also recorded: I13-G14, major, 0 min; also recorded: Y9-F10, 0 min; also recorded: V11-G12, 0 min | cleaved bond [5]: V11-G12, 0 min; also recorded: Y9-F10, major, 0 min; also recorded: F10-V11, 0 min; also recorded: I13-G14, 0 min | cleaved bond [6]: I13-G14, 60 min; also recorded: F10-V11, 60 min; also recorded: Y9-F10, 60 min; also recorded: Y9-F10, 120 min; also recorded: V11-G12, 120 min | cleaved bond [7]: F10-V11, 0 min; also recorded: Y9-F10, 0 min; also recorded: I13-G14, 0 min | cleaved bond [8]: Y9-F10, first_seen, 0 min; also recorded: F10-V11, first_seen, 0 min; also recorded: I13-G14, first_seen, 0 min; also recorded: G12-I13, 60 min; also recorded: V11-G12, 60 min

pediocin PA-1 (KYYGNGVTCGKHSCSVDWGKATTCIINNGAMAWATGGHQGNHKC; ends and bridges not checked; cysteine pairing not given here; UniProt P29430 19-62, looked up) [class IIa bacteriocin]
Antibacterial activity in the small intestine under gastrointestinal conditions [9]: losing completely its antibacterial activity
